We go through eight compounds from US6706716B2, “Compounds specific for the human α1d adrenergic receptor and uses thereof” (Synaptic Pharmaceutical Corporation, priority 1998, dated 2004).

Experiment [1] has as its target T1, human 5-HT1a receptor (Homo sapiens, UniProt P08908).
T1 construct: receptor open reading frames and variable non-coding 5′- and 3′-regions, was cloned into the eukaryotic expression vector pCEXV-3; expressed in transfected cells; host or cells: COS-7 cells, transient (DEAE-dextran); a deposited line 5-HT1A-3 (ATCC CRL 11889) is also named
T1 sequence (P08908 1-422): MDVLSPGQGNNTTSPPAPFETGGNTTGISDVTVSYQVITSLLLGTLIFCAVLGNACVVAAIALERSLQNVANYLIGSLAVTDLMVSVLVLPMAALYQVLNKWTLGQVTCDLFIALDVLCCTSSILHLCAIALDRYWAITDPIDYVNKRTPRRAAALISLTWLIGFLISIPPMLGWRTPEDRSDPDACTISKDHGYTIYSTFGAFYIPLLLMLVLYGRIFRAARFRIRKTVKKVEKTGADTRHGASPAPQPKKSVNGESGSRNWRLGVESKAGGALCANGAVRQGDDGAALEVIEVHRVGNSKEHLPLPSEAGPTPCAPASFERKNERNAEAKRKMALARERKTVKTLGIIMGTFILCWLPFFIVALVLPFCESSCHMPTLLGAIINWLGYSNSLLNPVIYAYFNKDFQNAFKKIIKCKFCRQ
Put plainly: Competition binding ([3H]-8-OH-DPAT) at cloned human 5-HT1a receptor. The settings on record: COS-7 cell membranes, read-out: Binding affinities (pKi) 5-HT1a (converted). As to the method: (§1) First, conditions were determined which allowed measurement of the specific binding of a compound known to bind to the receptor. Then, the binding of the known compound to the receptor in membrane preparations was evaluated in the presence of several different concentrations of the test compound.
(§2) These cell lines were prepared by transfecting the cloned cDNA or cloned genomic DNA or constructs containing both genomic DNA and cDNA encoding the human receptors as described below.
The cDNA corresponding to the ^5-HT1a receptor open reading frames and variable non-coding 5′- and 3′-regions, was cloned into the eukaryotic expression vector pCEXV-3. These constructs were transfected transiently into COS-7 cells by the DEAE-dextran method. Cells were harvested after 72 hours and lysed by sonication in 5 mM Tris-HCl, 5 mM EDTA, pH 7.5. The cell lysates were centrifuged at 1000 rpm for 5 minutes at 4° C., and the supernatant was centrifuged at 30,000×g for 20 minutes at 4° C. The pellet was suspended in 50 mM Tris-HCl buffer (pH 7.7 at room temperature) containing 10 mM MgSO4, 0.5 mM EDTA, and 0.1% ascorbate. The affinity of compounds at 5-HT1a receptors were determined in equilibrium competition binding assays using [^3H]-8-OH-DPAT. Nonspecific binding was defined by the addition of 10 μM mianserin. The bound radioligand was separated by filtration through GF/B filters using a cell harvester.

Experiment [2] addresses T2, human α1a adrenergic receptor (Homo sapiens, UniProt P35348).
T2 construct: The entire coding region of α1a (1401 bp); expressed in transfected cells
T2 sequence (P35348 1-466): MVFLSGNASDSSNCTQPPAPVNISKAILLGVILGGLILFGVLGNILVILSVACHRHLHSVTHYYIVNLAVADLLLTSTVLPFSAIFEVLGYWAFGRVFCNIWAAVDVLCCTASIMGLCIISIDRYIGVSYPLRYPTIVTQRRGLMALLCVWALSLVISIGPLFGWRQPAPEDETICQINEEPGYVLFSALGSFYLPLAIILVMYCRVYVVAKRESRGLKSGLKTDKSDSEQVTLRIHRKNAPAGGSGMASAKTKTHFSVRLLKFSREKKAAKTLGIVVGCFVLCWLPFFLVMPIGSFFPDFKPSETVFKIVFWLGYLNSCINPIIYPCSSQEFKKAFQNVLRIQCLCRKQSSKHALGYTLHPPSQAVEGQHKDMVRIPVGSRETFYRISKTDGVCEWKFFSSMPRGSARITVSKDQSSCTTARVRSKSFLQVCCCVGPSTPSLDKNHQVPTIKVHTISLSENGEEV
Put plainly: Radioligand binding ([3H]prazosin) at cloned human α1a adrenergic receptor. The conditions noted are these: LM(tk-) cell membranes, read-out: Binding affinities (pKi) α1a (converted). As to the method:
as §1, §2
The construct involved ligating three partial overlapping fragments: a 5′0.6 kb HincII genomic clone, a central 1.8 EcoRI hippocampal cDNA clone, and a 3′0.6 Kb PstI genomic clone. The hippocampal cDNA fragment overlaps with the 5′ and 3′ genomic clones so that the HincII and PstI sites at the 5′ and 3′ ends of the cDNA clone, respectively, were utilized for ligation. This full-length clone was cloned into the KpnI site of the expression vector, using the 5′ and 3′ KpnI sites of the fragment, derived from vector (i.e., pBluescript) and 3′-untranslated sequences, respectively. Stable cell lines were selected as described above. Membranes were harvested and assayed for their ability to bind [^3H]prazosin as described below (see Radioligand Binding assays).
Radioligand Binding Assays for α1 Human Adrenergic Receptors: Transfected cells from culture flasks were scraped into 5 ml of 5 mM Tris-HCl, 5 mM EDTA, pH 7.5, and lysed by sonication. The cell lysates were centrifuged at 1000 rpm for 5 min at 4° C., and the supernatant was centrifuged at 30,000×g for 20 min at 4° C. The pellet was suspended in 50 mM Tris-HCl, 1 mM MgCl2, and 0.1% ascorbic acid at pH 7.5. Binding of the α1, antagonist [^3H]prazosin (0.5 nM, specific activity 76.2 Ci/mmol) to membrane preparations of LM(tk-) cells was done in a final volume of 0.25 ml and incubated at 37° C. for 1 hour. Nonspecific binding was determined in the presence of 10 μM phentolamine. The reaction was stopped by filtration through GF/B filters using a cell harvester.

On to `O=C1CC2(CCCC2)CC(=O)N1CCN1CCN(c2cc(F)ccc2F)CC1` [Compound 6, 8-{2-[4-(2,5-Difluorophenyl)piperazin-1-yl]ethyl}-8-azaspiro[4.5]decane-7,9-dione], for which, in experiment [1], the Ki was 25.1 nM.

Regarding `Cc1ccc(Cl)cc1N1CCN(CCN2C(=O)CC3(CCCC3)CC2=O)CC1` [Compound 13, 8-{2-[4-(5-Chloro-2-methylphenyl)piperazino]ethyl}-8-azaspiro [4.5]decane-7,9-dione], the Ki is 251 nM in experiment [1] and 7940 nM in experiment [2].

On to `C[C@@H](CN1CCN(c2cc(F)ccc2F)CC1)N1C(=O)CC2(CCCC2)CC1=O` [Compound 10, 8-{(1S)-2-[4-(2,5-Difluorophenyl)piperazin-1-yl]-1-methylethyl}-8-azaspiro[4.5]decane-7,9-dione], for which the Ki in experiment [1] is 2510 nM; in experiment [2] it was 7940 nM.

In the case of `O=C1CC2(CCCC2)CC(=O)N1CCN1CCN(c2ccc(F)c(F)c2)CC1` [Compound 15, 8-{2-[4-(3,4-Difluorophenyl)piperazin-1-yl]ethyl}-8-azaspiro[4.5]decane-7,9-dione], the Ki in experiment [1] was 50.1 nM; in experiment [2], 3980 nM.

For `C[C@H](CN1CCN(c2cc(F)ccc2F)CC1)N1C(=O)CC2(CCCC2)CC1=O` [Compound 8, 8-{(1R)-2-[4-(2,5-Difluorophenyl)piperazin-1-yl]-1-methylethyl}-8-azaspiro[4.5]decane-7,9-dione], the Ki was 50.1 nM in experiment [1] and 6310 nM in experiment [2].

For the compound `O=C1CC2(CCCC2)CC(=O)N1CCN1CCN(c2c(F)cccc2F)CC1` [Compound 14, 8-{2-[4-(2,6-Difluorophenyl)piperazino]ethyl}-8-azaspiro[4.5]decane-7,9-dione], the figures for the Ki in experiment [1] and in experiment [2] were 7.94 nM and 3160 nM, respectively.

Consider `COc1ccc(F)cc1C1CCN(CCN2C(=O)CC3(CCCC3)CC2=O)CC1` [Compound 12, 8-{2-[4-(5-Fluoro-2-methoxyphenyl)piperidin-1-yl]ethyl}-8-azaspiro[4.5]decane-7,9-dione], for which the Ki in experiment [1] was 7.94 nM; in experiment [2], 79.4 nM.

Regarding `O=C1CC2(CCCC2)CC(=O)N1CCN1CCN(c2cc(F)c(F)cc2F)CC1` [Compound 7, 8-{2-[4-(2,4,5-Trifluorophenyl)piperazin-1-yl]ethyl}-8-azaspiro[4.5]decane-7,9-dione], the figures for the Ki in experiment [1] and in experiment [2] were 398 nM and 3980 nM, respectively.
